Measurements: patent US11702400B2, “Salt types, crystal forms, and preparation methods for benzopyrazole compounds as RHO kinase inhibitors” (MEDSHINE DISCOVERY INC., priority 2019, dated 2023)

How the values were obtained:
[1] = Pharmacokinetic study of the crystal form A of the compound of formula (II-1) in SD rats; type: in vivo
Method: Experimental Purpose: To Study the Pharmacokinetics of the Compounds in SD Rats
Experimental Materials: SD Rats (12, Half Male and Half Female)
Experimental procedure: The pharmacokinetic characteristics of the compounds were tested in rodents after intravenous (IV) and oral (PO) administration using standard protocols. The candidate compounds were prepared into 0.5 mg/mL and 1 mg/mL clarified solutions and administrated to rats for single intravenous injection and oral administration. The solvent for both intravenous and oral administration was 5% DMSO/95% (10% hydroxypropyl β-cyclodextrin) aqueous solution. 12 SD rats were used in this project, and 6 rats (half male and half female) were administered intravenously at a dose of 1 mg/kg and plasma samples were collected at 0.0833, 0.25, 0.5, 1, 2, 4, 8, 12, and 24 h after administration, and the other 6 rats (half male and half female) were administered orally by gavage at a dose of 10 mg/kg and plasma samples were collected at 0.25, 0.5, 1, 2, 4, 8, 12 and 24 h after administration. 15 μL of plasma sample was added to a 96-well plate, and 300 μL of internal standard working solution (MeOH (containing 1.00 ng/mL Verapamil and 0.1% formic acid (FA)): ACN (v:v, 50:50) solution) was added to precipitate the proteins, the 96-well plate was shaken for 15 min, followed by centrifugation at 4° C., 3220 g for 15 min. 150 μL of supernatant was placed in a new 96-well plate with 150 μL of aqueous solution containing 0.1% formic acid (FA) and shaken for 10 min, and then centrifuged at 4° C., 3220 g for 5 min. The samples were directly injected, and the plasma drug concentration was quantitatively analyzed by LC-MS/MS analysis method, and pharmacokinetic parameters were calculated, such as peak concentration (Cmax), clearance rate (CL), half-life (T1/2), […] (Vdss), area under the drug-time curve (AUC0-last), bioavailability (F), etc.

[2] = Solid stability test of the crystal form A of the compound of formula (II-1) (XRPD); type: physicochemical
Method: About 10 mg of the crystal form was accurately weighed and added to a dry and clean glass flask, spread into a thin layer, covered with aluminum foil, pierced small holes and placed under the influence factor test conditions and under accelerated conditions. Samples placed under illumination (visible light 1200000 Lux, UV 200 W) conditions were placed in clear glass flasks, fully exposed, and samples used for XRPD detection were placed separately.
After the samples were removed at the time point, the cover was covered, and the flask was sealed using sealing film, and stored in −20° C. refrigerator. When preparing the sample, the sample was removed from the refrigerator, restored to room temperature; 10 mL of 80% ACN was added, and the sample was dissolved by sonication for 2 min to obtain a solution with a concentration of about 1 mg/mL, then the liquid phase was used for injection analysis, and the detection results were compared with the initial detection results on day 0.
Preparation of standard solution on day 0: About 10 mg of the crystal was weighed and added to a 10 mL volumetric flask, dissolved with 80% ACN and the volume was fixed to the scale.

[3] = Influence factor stability test of the crystal form A of the compound of formula (II-1); type: physicochemical
Method: High humidity (25° C./92.5% RH): 1 g of each sample was weighed and the sample was placed in an open flat weighing bottle (70×35 mm) under 25° C./92.5% RH conditions, and then placed in a comprehensive drug stability chamber (25° C./92.5% RH) for investigation.
High temperature (60° C.): 1 g of each sample was weighed and the sample was placed in an open flat weighing bottle under 60° C. conditions, and then placed in a blast drying oven (60° C.) for investigation.
Illumination: 1 g of each sample was weighed. The samples with illumination condition were placed in a clean watch glass, spread into a thin layer and put into 5000±500 lux (visible light) with 90 μw/cm^2 (UV) conditions for illumination.

[4] = Accelerated stability test of the crystal form A of the compound of formula (II-1); type: physicochemical; settings: 40° C./75% RH
Method: Accelerated stability test: each sample was weighed 0.8 g (accelerated 1 month, accelerated 2 months) or 1.2 g (accelerated 3 months, accelerated 6 months) into double-layer low-density polyethylene (LDPE) bags, and each layer of LDPE bags was pierced and sealed, and then the LDPE bags were put into aluminum foil bags and heat sealed, respectively, and put into 40° C./75% RH conditions for investigation.

[5] = as above; type: physicochemical; settings: long-term placement conditions

COc1cccc(C(CN)NC(=O)c2cc(-c3ccc4[nH]nc(C)c4c3)ccn2)c1.Cl.Cl (stereo not drawn)
Clearance rate CL ([1]; SD rats, IV 1 mg/kg): 22.4 mL/min/kg
Half-life T1/2 (IV) ([1]; SD rats, IV 1 mg/kg): 4.93 h
Tissue distribution Vdss ([1]; SD rats, IV 1 mg/kg): 7.39 L/kg
Bioavailability F ([1]; SD rats, IV 1 mg/kg, PO 10 mg/kg): 17.8%
Area under drug-time curve AUC0-last PO ([1]; SD rats, PO 10 mg/kg): 3.69 µM·h
Cmax ([1]; SD rats, half male and half female, PO 10 mg/kg, read-out: Peak concentration Cmax): 519 nM
pharmacokinetic properties (conclusion in words) ([1]; rats): good pharmacokinetic properties
Crystal form ([2]; 0 day): Crystal form A
solid stability (conclusion in words) ([2]; 92.5% high humidity conditions): crystal transformation will occur
Crystal form ([2]; High humidity (relative humidity 75%, open), 5 days): Crystal form A
Crystal form ([2]; High humidity (relative humidity 75%, open), 10 days): Crystal form A
Crystal form ([2]; High humidity (relative humidity 92.5%, open), 5 days): Crystal form C
Crystal form ([2]; High humidity (relative humidity 92.5%, open), 10 days): Crystal form C
Crystal form ([2]; High temperature (60° C., open), 5 days): Crystal form A
Crystal form ([2]; High temperature (60° C., open), 10 days): Crystal form A
Crystal form ([2]; High temperature and humidity (40° C. relative humidity 75%, open), 5 days): Crystal form A
Crystal form ([2]; High temperature and humidity (40° C. relative humidity 75%, open), 10 days): Crystal form A
Crystal form ([2]; High temperature and humidity (60° C. relative humidity 75%, open), 5 days): Crystal form A
Crystal form ([2]; High temperature and humidity (60° C. relative humidity 75%, open), 10 days): Crystal form A
Crystal form ([2]; Illumination (total illuminance = 1.2 × 10^6 Lux·hr/near UV = 200 w·hr/m^2, open), 5 days): Crystal form A
Crystal form ([2]; Illumination (total illuminance = 1.2 × 10^6 Lux·hr/near UV = 200 w·hr/m^2, open), 10 days): Crystal form A
solid stability (conclusion in words) ([2]; high temperature, 75% humidity and strong illumination conditions): good stability
Content ([3]; 0 day): 99.5%
Impurity at relative retention time (RRT) 0.66 ([3]; 0 day): 0.06%
Impurity at relative retention time (RRT) 0.85 ([3]; 0 day): 0.34%
Impurity at relative retention time (RRT) 0.90 ([3]; 0 day): 0.02%
Impurity at relative retention time (RRT) 1.64 ([3]; 0 day): 0.06%
Total impurities ([3]; 0 day): 0.46%
Content ([3]; 25° C./92.5% RH, 1 month): 98.9%
Impurity at relative retention time (RRT) 0.66 ([3]; 25° C./92.5% RH, 1 month): 0.06%
Impurity at relative retention time (RRT) 0.85 ([3]; 25° C./92.5% RH, 1 month): 0.32%
Impurity at relative retention time (RRT) 0.90 ([3]; 25° C./92.5% RH, 1 month): 0.03%
Impurity at relative retention time (RRT) 1.64 ([3]; 25° C./92.5% RH, 1 month): 0.05%
Total impurities ([3]; 25° C./92.5% RH, 1 month): 0.43%
Content ([3]; 60° C., 1 month): 99.6%
Impurity at relative retention time (RRT) 0.66 ([3]; 60° C., 1 month): 0.06%
Impurity at relative retention time (RRT) 0.85 ([3]; 60° C., 1 month): 0.31%
Impurity at relative retention time (RRT) 0.90 ([3]; 60° C., 1 month): 0.06%
Impurity at relative retention time (RRT) 1.64 ([3]; 60° C., 1 month): 0.04%
Total impurities ([3]; 60° C., 1 month): 0.43%
Content ([3]; Illumination, 10 days): 97.6%
Impurity at relative retention time (RRT) 0.66 ([3]; Illumination, 10 days): 0.09%
Impurity at relative retention time (RRT) 0.85 ([3]; Illumination, 10 days): 0.31%
Impurity at relative retention time (RRT) 0.90 ([3]; Illumination, 10 days): 0.02%
Impurity at relative retention time (RRT) 1.64 ([3]; Illumination, 10 days): 0.05%
Total impurities ([3]; Illumination, 10 days): 0.51%
stability in influence factor test (conclusion in words) ([3]; illumination, high temperature and high humidity): stable
Content ([4]; 0 day): 99.5%
Impurity at RRT 0.66 ([4]; 0 day): 0.06%
Impurity at RRT 0.85 ([4]; 0 day): 0.34%
Impurity at RRT 0.90 ([4]; 0 day): 0.02%
Impurity at RRT 1.64 ([4]; 0 day): 0.06%
Total impurities ([4]; 0 day): 0.46%
Content ([4]; 1 month): 100.0%
Impurity at RRT 0.66 ([4]; 1 month): 0.06%
Impurity at RRT 0.85 ([4]; 1 month): 0.36%
Impurity at RRT 0.90 ([4]; 1 month): 0.02%
Impurity at RRT 1.64 ([4]; 1 month): 0.05%
Total impurities ([4]; 1 month): 0.47%
Content ([4]; 2 months): 99.6%
Impurity at RRT 0.66 ([4]; 2 months): 0.06%
Impurity at RRT 0.85 ([4]; 2 months): 0.33%
Impurity at RRT 0.90 ([4]; 2 months): 0.03%
Impurity at RRT 1.64 ([4]; 2 months): 0.04%
Total impurities ([4]; 2 months): 0.39%
Content ([4]; 3 months): 98.8%
Impurity at RRT 0.66 ([4]; 3 months): 0.06%
Impurity at RRT 0.85 ([4]; 3 months): 0.33%
Impurity at RRT 0.90 ([4]; 3 months): 0.04%
Impurity at RRT 1.64 ([4]; 3 months): 0.04%
Total impurities ([4]; 3 months): 0.39%
stability in accelerated test (conclusion in words) [5]: stable
